Measured values: ChEMBL document CHEMBL1138549, “Synthesis of new 2-substituted pyrido[2,3-d]pyrimidin-4(1H)-ones and their antibacterial activity” (2009)
Converted amounts (≈) assume the structure as drawn. The source made the active and inactive calls. The calls are words filed in the database; no cut-off is given here.

Tests used:
Bacillus subtilis = test: Antibacterial activity against Bacillus subtilis MTCC 441 after 24 hrs by NCCLS M7-A5 method; format: functional; settings: MTCC 441, 24 h
Staphylococcus aureus = test: Antibacterial activity against Staphylococcus aureus MTCC 96 after 24 hrs by NCCLS M7-A5 method; format: functional; settings: MTCC 96, 24 h
Escherichia coli = test: Antibacterial activity against Escherichia coli MTCC 722 after 24 hrs by NCCLS M7-A5 method; format: functional; settings: MTCC 722, 24 h
Klebsiella pneumoniae = test: Antibacterial activity against Klebsiella pneumoniae MTCC 109 after 24 hrs by NCCLS M7-A5 method; format: functional; settings: MTCC 109, 24 h
Aspergillus niger = test: Antifungal activity against Aspergillus niger at 200 ug/ml; format: functional, organism-based
Candida albicans = test: Antifungal activity against Candida albicans at 200 ug/ml; format: functional, organism-based
MCF7 = test: Cytotoxicity against human MCF7 cells up to 150 ug/ml; format: functional, cell-based

Row | SMILES | MIC (Bacillus subtilis) [µg/mL] | MIC (Staphylococcus aureus) [µg/mL] | MIC (Escherichia coli) [µg/mL] | MIC (Klebsiella pneumoniae) [µg/mL] | Activity (Aspergillus niger) | Activity (Candida albicans) | Activity (MCF7)
1 | COc1cc(-c2nc3nc(C)cc(C)c3c(=O)[nH]2)ccc1O | 25 (≈ 84.1 µM) | 12.5 (≈ 42 µM) | 50 (≈ 168 µM) | 50 (≈ 168 µM) | inactive | inactive | Not toxic
2 | Cc1cc(C)c2c(n1)NC(c1cccc(Cl)c1Cl)NC2=O (configuration not stated) | 25 (≈ 77.6 µM) | 50 (≈ 155 µM) |  | 100 (≈ 310 µM) | inactive | inactive | Not toxic
3 | COc1ccc(-c2nc3nc(C)cc(C)c3c(=O)[nH]2)c(O)c1 | 50 (≈ 168 µM) | 50 (≈ 168 µM) | 50 (≈ 168 µM) | 50 (≈ 168 µM) | inactive | inactive | Not toxic
4 | O=C(O)c1cn(C2CC2)c2cc(N3CCNCC3)c(F)cc2c1=O [CIPROFLOXACIN] | 0.78 (≈ 2.35 µM) | 0.39 (≈ 1.18 µM) |  | 0.78 (≈ 2.35 µM) |  |  | 
5 | Cc1cc(C)c2c(=O)[nH]c(-c3cccc(Cl)c3Cl)nc2n1 | 50 (≈ 156 µM) | 100 (≈ 312 µM) |  |  | inactive | inactive | Not toxic
6 | Cc1cc(C)c2c(n1)NC(c1ccccc1O)NC2=O (configuration not stated) | 25 (≈ 92.8 µM) | 50 (≈ 186 µM) | 50 (≈ 186 µM) | 50 (≈ 186 µM) | inactive | inactive | Not toxic
7 | COc1ccc(C2NC(=O)c3c(C)cc(C)nc3N2)c(O)c1 (configuration not stated) | 25 (≈ 83.5 µM) | 25 (≈ 83.5 µM) | 50 (≈ 167 µM) | 25 (≈ 83.5 µM) | inactive | inactive | Not toxic
8 | COc1ccc(-c2nc3nc(C)cc(C)c3c(=O)[nH]2)cc1 | 25 (≈ 88.9 µM) | 12.5 (≈ 44.4 µM) | 12.5 (≈ 44.4 µM) | 25 (≈ 88.9 µM) | inactive | inactive | Not toxic
9 | CC(=O)Oc1ccc(-c2nc3nc(C)cc(C)c3c(=O)[nH]2)cc1 | 25.5 (≈ 82.4 µM) | 25 (≈ 80.8 µM) | 25 (≈ 80.8 µM) | 50 (≈ 162 µM) | inactive | inactive | Not toxic
10 | Cc1cc(C)c2c(=O)[nH]c(-c3ccccc3O)nc2n1 | 50 (≈ 187 µM) | 50 (≈ 187 µM) | 50 (≈ 187 µM) | 100 (≈ 374 µM) | inactive | inactive | Not toxic
11 | COc1cc(C2NC(=O)c3c(C)cc(C)nc3N2)ccc1O (configuration not stated) | 12.5 (≈ 41.8 µM) | 1.25 (≈ 4.18 µM) | 50 (≈ 167 µM) | 50 (≈ 167 µM) | inactive | inactive | Not toxic

Further molecules by falling MIC (Bacillus subtilis), results first:

Row | MIC (Bacillus subtilis) [µg/mL] | MIC (Staphylococcus aureus) [µg/mL] | MIC (Escherichia coli) [µg/mL] | MIC (Klebsiella pneumoniae) [µg/mL] | SMILES | Activity (Aspergillus niger) | Activity (Candida albicans) | Activity (MCF7)
12 | 12.5 (≈ 42.3 µM) | 6.25 (≈ 21.2 µM) | 6.25 (≈ 21.2 µM) | 12.5 (≈ 42.3 µM) | Cc1cc(C)c2c(=O)[nH]c(-c3cc(C)c(O)c(C)c3)nc2n1 | inactive | inactive | Not toxic
13 | 12.5 (≈ 48.6 µM) | 25 (≈ 97.2 µM) | 12.5 (≈ 48.6 µM) | 50 (≈ 194 µM) | Cc1cc(C)c2c(=O)[nH]c(-c3cccs3)nc2n1 | inactive | inactive | Not toxic
14 | 12.5 (≈ 40.1 µM) | 25 (≈ 80.3 µM) | 25 (≈ 80.3 µM) | 50 (≈ 161 µM) | COc1ccc(-c2nc3nc(C)cc(C)c3c(=O)[nH]2)c(OC)c1 | inactive | inactive | Not toxic
15 | 12.5 (≈ 36.6 µM) | 6.25 (≈ 18.3 µM) | 25 (≈ 73.2 µM) | 6.25 (≈ 18.3 µM) | COc1cc(-c2nc3nc(C)cc(C)c3c(=O)[nH]2)cc(OC)c1OC | inactive | inactive | Not toxic
16 | 12.5 (≈ 44.7 µM) | 12.5 (≈ 44.7 µM) | 12.5 (≈ 44.7 µM) | 50 (≈ 179 µM) | Cc1cc(C)c2c(=O)[nH]c(-c3cccc(C)c3C)nc2n1 | inactive | inactive | Not toxic
17 | 12.5 (≈ 51.8 µM) | 25 (≈ 104 µM) | 25 (≈ 104 µM) | 50 (≈ 207 µM) | Cc1cc(C)c2c(=O)[nH]c(-c3ccco3)nc2n1 | inactive | inactive | Not toxic
18 | 6.25 (≈ 22.1 µM) | 12.5 (≈ 44.1 µM) | 3.25 (≈ 11.5 µM) | 6.25 (≈ 22.1 µM) | COc1ccc(C2NC(=O)c3c(C)cc(C)nc3N2)cc1 (configuration not stated) | inactive | inactive | Not toxic
19 | 6.25 (≈ 20.1 µM) | 12.5 (≈ 40.1 µM) | 25 (≈ 80.3 µM) | 50 (≈ 161 µM) | CC(=O)Oc1ccc(C2NC(=O)c3c(C)cc(C)nc3N2)cc1 (configuration not stated) | inactive | inactive | Not toxic
20 | 6.25 (≈ 24.1 µM) | 12.5 (≈ 48.2 µM) | 12.5 (≈ 48.2 µM) | 25 (≈ 96.4 µM) | Cc1cc(C)c2c(n1)NC(c1cccs1)NC2=O (configuration not stated) | inactive | inactive | Not toxic
21 | 6.25 (≈ 22.2 µM) | 12.5 (≈ 44.4 µM) | 12.5 (≈ 44.4 µM) | 25 (≈ 88.9 µM) | Cc1cc(C)c2c(n1)NC(c1cccc(C)c1C)NC2=O (configuration not stated) | inactive | inactive | Not toxic
22 | 6.25 (≈ 20.1 µM) | 6.25 (≈ 20.1 µM) | 12.5 (≈ 40.1 µM) | 12.5 (≈ 40.1 µM) | COc1ccc(-c2nc3nc(C)cc(C)c3c(=O)[nH]2)cc1OC | inactive | inactive | Not toxic
23 | 3.25 (≈ 10.9 µM) | 3.25 (≈ 10.9 µM) | 6.25 (≈ 21 µM) | 12.5 (≈ 42 µM) | Cc1cc(C)c2c(n1)NC(c1cc(C)c(O)c(C)c1)NC2=O (configuration not stated) | inactive | inactive | Not toxic
24 | 3.25 (≈ 13.4 µM) | 12.5 (≈ 51.4 µM) | 25 (≈ 103 µM) | 12.5 (≈ 51.4 µM) | Cc1cc(C)c2c(n1)NC(c1ccco1)NC2=O (configuration not stated) | inactive | inactive | Not toxic
25 | 3.25 (≈ 9.46 µM) | 1.25 (≈ 3.64 µM) | 3.25 (≈ 9.46 µM) | 1.25 (≈ 3.64 µM) | COc1cc(C2NC(=O)c3c(C)cc(C)nc3N2)cc(OC)c1OC (configuration not stated) | inactive | inactive | Not toxic
26 | 3.25 (≈ 10.4 µM) | 3.25 (≈ 10.4 µM) | 6.25 (≈ 19.9 µM) | 12.5 (≈ 39.9 µM) | COc1ccc(C2NC(=O)c3c(C)cc(C)nc3N2)cc1OC (configuration not stated) | inactive | inactive | Not toxic
27 | 3.25 (≈ 10.4 µM) | 12.5 (≈ 39.9 µM) | 25 (≈ 79.8 µM) | 12.5 (≈ 39.9 µM) | COc1ccc(C2NC(=O)c3c(C)cc(C)nc3N2)c(OC)c1 (configuration not stated) | inactive | inactive | Not toxic
